From the NIST ThermoML archive (doi:10.1016/j.jct.2016.12.020)

Experiment: excess molar enthalpy (molar enthalpy of mixing); xn = mol fraction of the nth substance listed
Settings: 100 kPa, Liquid, Calvet calorimetry

[Au] [gold] + [Ga]
excess molar enthalpy [kcal/mol]
Settings	1223 K	1323 K
x1 = 0.03042	-0.3007	–
x1 = 0.03979	–	-0.4015
x1 = 0.0642	-0.6272	–
x1 = 0.07894	–	-0.7875
x1 = 0.09685	-0.9732	–
x1 = 0.116	–	-1.149
x1 = 0.1281	-1.308	–
x1 = 0.1512	–	-1.492
x1 = 0.1606	-1.622	–
x1 = 0.1843	–	-1.794
x1 = 0.1915	-1.907	–
x1 = 0.2172	–	-2.085
x1 = 0.2205	-2.139	–
x1 = 0.2492	-2.37	-2.366
x1 = 0.2762	-2.589	–
x1 = 0.2785	–	-2.596
x1 = 0.3018	-2.787	–
x1 = 0.3074	–	-2.819
x1 = 0.3274	-2.98	–
x1 = 0.3345	–	-3.014
x1 = 0.3516	-3.153	–
x1 = 0.3597	–	-3.179
x1 = 0.3741	-3.296	–
x1 = 0.3836	–	-3.319
x1 = 0.3958	-3.404	–
x1 = 0.4061	–	-3.431
x1 = 0.4164	-3.509	–
x1 = 0.4283	–	-3.53
x1 = 0.4363	-3.587	–
x1 = 0.449	–	-3.615
x1 = 0.4553	-3.665	–
x1 = 0.4692	–	-3.695
x1 = 0.4737	-3.733	–
x1 = 0.4871	-3.783	–
x1 = 0.4882	–	-3.752
x1 = 0.4991	–	-3.797
x1 = 0.5003	-3.814	–
x1 = 0.5096	–	-3.825
x1 = 0.5139	-3.826	–
x1 = 0.5203	–	-3.85
x1 = 0.527	-3.839	–
x1 = 0.5307	–	-3.87
x1 = 0.5395	-3.851	–
x1 = 0.5412	–	-3.88
x1 = 0.5514	–	-3.89
x1 = 0.5515	-3.86	–
x1 = 0.5621	–	-3.89
x1 = 0.5631	-3.88	–
x1 = 0.5727	–	-3.9
x1 = 0.5743	-3.88	–
x1 = 0.5829	–	-3.9
x1 = 0.585	-3.88	–
x1 = 0.5927	–	-3.89
x1 = 0.5953	-3.88	–
x1 = 0.6028	–	-3.88
x1 = 0.6053	-3.88	–
x1 = 0.6129	–	-3.87
x1 = 0.6147	-3.88	–
x1 = 0.6231	–	-3.84
x1 = 0.6239	-3.87	–
x1 = 0.6306	-3.86	–
x1 = 0.637	-3.85	–
x1 = 0.6431	-3.83	–

[Ag] [silver] + [Ga]
Settings	excess molar enthalpy [kcal/mol]
1223 K, x1 = 0.04915	0.0514
1223 K, x1 = 0.0956	0.0619
1223 K, x1 = 0.1383	0.0729
1223 K, x1 = 0.1792	0.0681
1223 K, x1 = 0.2178	0.0629
1223 K, x1 = 0.2552	0.0301
1223 K, x1 = 0.2905	-0.00215
1223 K, x1 = 0.3228	-0.0502
1223 K, x1 = 0.3528	-0.0958
1223 K, x1 = 0.3809	-0.14
1223 K, x1 = 0.4081	-0.193
1223 K, x1 = 0.4336	-0.252
1223 K, x1 = 0.4572	-0.308
1223 K, x1 = 0.4789	-0.346
1223 K, x1 = 0.4992	-0.389
1223 K, x1 = 0.5189	-0.447
1223 K, x1 = 0.5372	-0.494
1223 K, x1 = 0.5548	-0.535
1223 K, x1 = 0.5712	-0.574
1323 K, x1 = 0.05283	0.0533
1323 K, x1 = 0.1006	0.0992
1323 K, x1 = 0.1464	0.112
1323 K, x1 = 0.1894	0.107
1323 K, x1 = 0.2288	0.0978
1323 K, x1 = 0.2649	0.0846
1323 K, x1 = 0.2996	0.0519
1323 K, x1 = 0.3321	0.00598
1323 K, x1 = 0.3634	-0.0519
1323 K, x1 = 0.3921	-0.0949
1323 K, x1 = 0.4189	-0.144
1323 K, x1 = 0.4443	-0.198
1323 K, x1 = 0.4687	-0.227
1323 K, x1 = 0.4964	-0.274
1323 K, x1 = 0.5168	-0.312
1323 K, x1 = 0.5359	-0.344
1323 K, x1 = 0.5558	-0.386
